Data taken from patent US20060147456A1, “Induction of apoptosis in toll-like receptor expressing tumor cells” (priority 2004, published 2006).

Assays:
[1] = tested on: TLR3 mRNA; assay: TLR3 mRNA expression by RT-PCR in Cama-1 cells; type: cell-based, human; conditions: 48 h
Description: Cama-1 cells were analyzed for TLR3 mRNA expression in response to Poly IC. Cama-1 cells were cultured in complete medium (DMEM F12 containing […] glucose and complemented with 2 mM L-glutamine, 10% fetal calf serum, 160 μg/mL gentalline, 2.5 mg/mL sodium bicarbonate) for 48 hours either alone or with LPS (5 μg/ml) and/or with Poly IC (5 μg/ml). The mRNA from each group of cells was extracted. The mRNA was then reverse-transcribed and PCR amplified for 35 cycles (as above in Example 1) with hTLR3 specific primers: TLR3F: […] (SEQ ID NO: 5) and TLR3R: […] (SEQ ID NO: 6). TLR3 mRNA could not be amplified from resting Cama-1 cells.
Amplified DNA from RT-PCR using hTLR3 specific primers was run on a gel.

[2] = tested on: IL-6; assay: IL-6 secretion by ELISA in siRNA transfected Cama-1 cells; type: cell-based, human; conditions: 24 h with 5 μg/ml Poly IC, untreated 10
Description: IL-6 secretion was measured in culture supernatants by standard Enzyme-Linked Assay (ELISA) using a DuoSet ELISA kit according to manufacturer's instructions (R&D Systems).
In parallel, IL-6 concentration in the supernatants of siRNA transfected Cama-1 cells cultured for 24 hours either with or without 5 μg/ml of Poly IC was determined by ELISA. […] In the siRNA IRAK-4 group, untreated and treated cells had IL-6 concentrations (pg/ml/10^6 cells) of 10 and 40, respectively. In the siRNA TRAF6 group, untreated and treated cells had IL-6 concentrations (pg/ml/10^6 cells) of 10 and 20, respectively.

[3] = tested on: Caspase 3; assay: Western Blot for Caspase 3 in Cama-1 cells; type: cell-based, human; conditions: Poly IC treatment
Description: (§1) Cama-1 cells were lysed in 1% Nonidet-P40-containing buffer. 20 μg total protein was loaded per lane on SDS-Polyacrylamide gels (Invitrogen). Western Blots (WB) were performed with standard techniques using the antibodies described above. Anti IRAK-4 monoclonal antibodies were generated in the laboratory according to the protocol described in Fossiez et al., “T cell interleukin-17 induces stromal cells to produce proinflammatory and hematopoietic cytokines”, J. Exp. Med., vol. 183(6), pp. 2593-2603 (1996).
We next addressed the role of caspases in apoptosis. Cama-1 cells were pre-incubated with 25 μM of the general caspase inhibitor z-VAD-fmk or DMSO for 1 hour before culture for 24 hours with or without 5 μg/ml Poly IC or 25 ng/ml TNF-α (used as a positive control). Apoptosis was measured by annexin V staining and expressed as a percentage of apoptotic cell in the culture.
In another experiment, lysates from cells obtained above were analyzed by Western Blot for cleavage of PARP, Caspase 3 and Caspase 8.

[4] = tested on: IFN-β; assay: Western Blot of Cama-1 cell lysate for IFN-β; type: cell-based, human; conditions: 5 μg/ml Poly IC, 0 to 24 hours
Description: as §1
The involvement of type 1 interferon in TLR3 mediated apoptosis was evaluated. Cama-1 cells were incubated with 5 μg/ml Poly IC for either 0 hours, 1 hour, 6 hours, 18 hours or 24 hours. The presence of IFN-β, phosphorylated Stat1 (tyrosine 701) (P-Stat-1) and total Stat-1 in the cell lysate were analyzed by Western Blot.

[5] = tested on: human primary breast tumor cells; assay: Apoptosis by PI staining (subG0/G1 cells); type: cell-based; conditions: 50 μg/ml Poly IC, 48 h; PBS 19.5%
Source text: Human primary breast tumor sample was obtained from the Centre Léon Bérard (Lyon, France) in agreement with the Hospital bioethical protocols. A single cell suspension was obtained after digestion with Collagenase A (Sigma-Aldrich) and washes and enrichment in Human Epithelial Antigen (HEA) positive cells using HEA-microbeads (Mylteni Biotech, Bergisch Gladbach, Germany) according to manufacturer's instructions. The final single cell suspension contained more than 80% HEA positive cells and less than 2% CD4^+ hematopoietic contaminants.
Cell recovery after treatment with TLR ligands was measured by crystal violet staining (Sigma-Aldrich). Cells were plated at 10^4 cells/well in 96 well plates. […] Sub-diploid cells were detected by staining with 3 μg/mL propidium iodide (PI) (Molecular probes, Eugene, Oreg.), after overnight permeabilization in 70% ethanol. Fluorescence was analyzed by flow cytometry on a FACScalibur (Becton Dickinson, Mountain View, Calif.) equipped with a doublet-discrimination module and using Celiquest Pro software (Becton Dickinson).
We then tried to determine the effect that Poly IC has on human primary breast tumor cells. […] Apoptosis was measured by PI staining. […]

[6] = tested on: colon cancer cell line LS174T; assay: BrdU incorporation and propidium iodide DNA content by FACS; type: cell-based
Description: Two cell lines, the colon cancer cell line LS174T and the breast cancer cell line Cama-1, were analyzed for death and cell cycle changes. Cells were cultured for 48 hours in either the presence or absence of Poly IC (5 μg/ml). Following a 30-minute pulse with 1 μg/ml bromodeoxyuridine (BrdU), the cells were fixed overnight at 4° C. in 70% ethanol before staining with FITC-coupled anti-BrdU monoclonal antibody and 3 μg/ml propidium iodide. Cell death and the cell cycle were analyzed by flow cytometry (FACS). BrdU incorporation is a measure of proliferation, whereas propidium iodide staining allows the quantification of DNA content, in particular the subdiploid cell population undergoing apoptosis.

polyinosinic-polycytidylic acid [Poly IC]
TLR3 mRNA expression ([1]; 5 μg/ml, agent alone): induced
TLR3 expression on gel ([1]; both Poly IC (5 μg/ml) and LPS (5 μg/ml)): showed TLR3 expression
IL-6 concentration in supernatant ([2]; scr group): 110 pg/ml/10^6 cells
IL-6 concentration in supernatant ([2]; siRNA IRAK-4 group): 40 pg/ml/10^6 cells
IL-6 concentration in supernatant ([2]; siRNA TRAF6 group): 20 pg/ml/10^6 cells
caspase 3 activation [3]: activated
IFN-β production [4]: strongly induced
cells with low DNA content (subG0/G1 cells) [5]: 38.6%
percentage of cells with subdiploid DNA content ([6]; 48 h with 5 μg/ml Poly IC (3% before treatment)): 23%
percentage of cells that incorporated BrdU ([6]; 48 h with 5 μg/ml Poly IC (27% before treatment)): 9%
